Reference: patent US12173007B2, “Imidazopyridazine IL-17 inhibitor compounds” (Janssen Pharmaceutica NV, priority 2021, dated 2024)

Experiments:
[1] = system: IL-17A-induced G-CSF production in human normal keratinocyte (NHK); experiment: NHK assay: IL-17A-induced G-CSF production in normal human keratinocytes; type: cell-based; details: 24 h, IL-17A 5 ng/mL, G-CSF by HTRF, average if tested more than once
Procedure: IL-17A acts directly on keratinocytes through binding to dimeric receptor IL-17RA/RC and drives the production of a number of inflammatory mediators known to be elevated in psoriasis lesional tissue. IL-17A small molecule inhibitors that block the IL-17A to interact with IL-17R would inhibit the IL-17A signaling in its targeted cells such as keratinocytes. The compound functional activity is evaluated for its impact on IL-17A-induced G-CSF production in human normal keratinocyte (NHK).
Adult normal human keratinocytes are cultured in keratinocyte growth medium (Lonza) in a flask till reaching ˜90% confluence, then cells are transferred to a 384-well plate at density of 3000-4000 cell/well. Recombinant human IL-17A (Gibco PHC9174) is pre-incubated with titrated compound or DMSO for 1 h at rt then added to the cell culture plate. The final concentration of IL-17A is 5 ng/mL and DMSO is 0.2%, in the culture containing 5% FBS. Cells are cultured/treated for 24 h at 37° C. Supernatants are collected and G-CSF production is measured through HTRF technology using Human G-CSF Kit (CisBio). G-CSF concentration was extrapolated from the standard curve and IC50 is determined using GraphPad Prism. Cell viability is also evaluated using CellTiter-Glo kit (Promega) and effect of compound on cell viability is compared to DMSO control.

[2] = target: IL-17A(FLAG-Tagged): IL-17RA(His-Tagged) binding (Homo sapiens, UniProt Q16552, K93Q); experiment: IL-17A(FLAG-tagged):IL-17RA(His-tagged) binding disruption Eu-HTRF assay, Protocol 2; details: FLAG-IL-17A 1 nM; average if tested more than once
Description: IL-17A(FLAG-Tagged): IL-17RA(His-Tagged) Binding Disruption Eu-HTRF Assay
An antibody directed against the FLAG tag of IL-17A (SEQ ID NO: 1) is labeled with the HTRF donor chromophore (Europium-cryptate). IL-17A is present as a dimer that is “locked into” this quaternary structure due to the formation of loop-spanning […] disulfide bridges. The construct of IL-17RA used in the assay excludes the […] portion of the receptor and is fused to a C-terminal 10×His tag (SEQ ID NO:2). An antibody directed against the His tag of the IL-17RA chimera is labeled with the HTRF acceptor chromophore (“D2”). The fluorescence-resonance energy transfer (FRET) depends on the vicinity of the donor chromophore to the acceptor, and interruption of the binding between the IL-17A and IL-17RA causes the reduction/loss of FRET. Therefore, this assay allows to evaluate the compound effect on the binding IL-17A and IL-17RA by monitoring the fluorescence intensity of donor vs acceptor. The assay was run using either Protocol 1 or Protocol 2 as described below.
Protocol 2. 40 nl of 2-fold serial diluted compound solution for total 22 dilution points is added into each well of a 1536-well, white, low-volume, non-binding plate (Greiner #782904), then 2 μl of FLAG tagged IL-17A at 2×final concentration (1 nM) in solution of PBS+0.01% Triton-X100 is added to each well. The assay plate is briefly centrifuged then incubated for 1 h at rt. A mixed solution is prepared containing 2×5 nM 10HIS×IL-17RA, 2×2.5 nM Eu-anti-FLAG (CISBIO), 2×5 nM D2-anti-HIS (CISBIO) in PBS+0.01% Triton-X100+200 mM Potassium Fluoride (Sigma 60238) and 2 μl of mix is added to each well of the assay plate. The plate is briefly centrifuged then incubated for 2 h at rt. The HTRF intensities at the wavelength of donor (615 nm) and acceptor (665 nm) are measured using BMG Pherastar. The ratio between intensities at two wavelengths is calculated and plotted against the compound concentration and the data is fitted to a one-site competition model to yield IC50 of the compound.

UniProt Q16552, sequence (Q16552 with tags, fused parts or gaps K93Q): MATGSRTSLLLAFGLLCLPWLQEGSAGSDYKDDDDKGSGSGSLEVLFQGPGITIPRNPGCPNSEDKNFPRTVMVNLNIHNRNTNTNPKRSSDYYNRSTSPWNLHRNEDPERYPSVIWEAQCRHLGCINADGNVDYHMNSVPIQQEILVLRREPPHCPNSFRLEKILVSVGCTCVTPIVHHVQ

COc1nonc1C(=O)N[C@@H](CCC(C)(C)C(F)(F)F)c1cn2ncc(CN3C[C@H]4[C@@H](CNC3=O)C4(F)F)cc2n1 (relative stereo) [Example 117, N—((S)-1-(7-(((1R*,7S*)-8,8-Difluoro-4-oxo-3,5-diazabicyclo[5.1.0]octan-3-yl)methyl)imidazo[1,2-b]pyridazin-2-yl)-5,5,5-trifluoro-4,4-dimethylpentyl)-4-methoxy-1,2,5-oxadiazole-3-carboxamide]
IC50 ([1]; Homo sapiens, Keratinocyte): < 50 nM | IC50 [2]: < 50 nM

COC[C@H](c1cnn2cc(C(CCC3(C(F)(F)F)CC3)NC(=O)c3nonc3C)nc2c1)N1CC(F)(F)CNC1=O (single isomer, unassigned) [Example 126, N—((S*)-1-(7-((S)-1-(5,5-Difluoro-2-oxotetrahydropyrimidin-1(2H)-yl)-2-methoxyethyl)imidazo[1,2-b]pyridazin-2-yl)-3-(1-(trifluoromethyl)cyclopropyl)propyl)-4-methyl-1,2,5-oxadiazole-3-carboxamide]
IC50 [1]: < 50 nM | IC50 [2]: < 50 nM

COc1nonc1C(=O)N[C@@H](CCC(C)(C)C(F)(F)F)c1cn2ncc(CN3C[C@@H]4[C@H](CNC3=O)C4(F)F)cc2n1 (relative stereo) [Example 116, N—((S)-1-(7-(((1S*,7R*)-8,8-Difluoro-4-oxo-3,5-diazabicyclo[5.1.0]octan-3-yl)methyl)imidazo[1,2-b]pyridazin-2-yl)-5,5,5-trifluoro-4,4-dimethylpentyl)-4-methoxy-1,2,5-oxadiazole-3-carboxamide]
IC50 ([1]; Homo sapiens, Keratinocyte): > 100 nM | IC50 [2]: 50 to 100 nM

[2H]C1([2H])NC(=O)N([C@H](COC2CC2)c2cnn3cc([C@@H](NC(=O)c4nonc4CC)C4CCC(F)(F)CC4)nc3c2)C([2H])([2H])C1(F)F [Example 70, N—((S)-(7-((S)-2-Cyclopropoxy-1-(5,5-difluoro-2-oxotetrahydropyrimidin-1(2H)-yl-4,4,6,6-d4)ethyl)imidazo[1,2-b]pyridazin-2-yl)(4,4-difluorocyclohexyl)methyl)-4-ethyl-1,2,5-oxadiazole-3-carboxamide]
IC50 ([1]; Homo sapiens, Keratinocyte): < 50 nM | IC50 [2]: < 50 nM

COC[C@H](c1cnn2cc([C@@H](NC(=O)c3nonc3C(F)(F)F)C3CCC(F)(F)CC3)nc2c1)N1CC(F)(F)CNC1=O [Example 84, N—((S)-(7-((S)-1-(5,5-Difluoro-2-oxotetrahydropyrimidin-1(2H)-yl)-2-methoxyethyl)imidazo[1,2-b]pyridazin-2-yl)(4,4-difluorocyclohexyl)methyl)-4-(trifluoromethyl)-1,2,5-oxadiazole-3-carboxamide]
IC50 ([1]; Homo sapiens, Keratinocyte): < 50 nM | IC50 [2]: < 50 nM

[2H]C1([2H])NC(=O)N([C@H](COC)c2cnn3cc([C@H](CCC(C)(C)C(F)(F)F)NC(=O)c4ncnn4C(C)C)nc3c2)C([2H])([2H])C1(F)F [Example 112, N—((S)-1-(7-((S)-1-(5,5-Difluoro-2-oxotetrahydropyrimidin-1(2H)-yl-4,4,6,6-d4)-2-methoxyethyl)imidazo[1,2-b]pyridazin-2-yl)-5,5,5-trifluoro-4,4-dimethylpentyl)-1-isopropyl-1H-1,2,4-triazole-5-carboxamide]
IC50 ([1]; Homo sapiens, Keratinocyte): 50 to 100 nM | IC50 [2]: < 50 nM

CC(C)(CC[C@H](NC(=O)c1nonc1C1CC1)c1cn2ncc(CN3C[C@@H]4[C@H](CNC3=O)C4(F)F)cc2n1)C(F)(F)F (relative stereo) [Example 118, 4-Cyclopropyl-N—((S)-1-(7-(((1S*,7R*)-8,8-difluoro-4-oxo-3,5-diazabicyclo[5.1.0]octan-3-yl)methyl)imidazo[1,2-b]pyridazin-2-yl)-5,5,5-trifluoro-4,4-dimethylpentyl)-1,2,5-oxadiazole-3-carboxamide]
IC50 ([1]; Homo sapiens, Keratinocyte): > 100 nM | IC50 [2]: < 50 nM

COC[C@H](c1cnn2cc([C@H](CCC(C)(C)C(C)(F)F)NC(=O)c3nonc3C)nc2c1)N1CC(F)(F)CNC1=O (relative stereo) [Example 133, N—((S*)-1-(7-((S)-1-(5,5-Difluoro-2-oxotetrahydropyrimidin-1(2H)-yl)-2-methoxyethyl)imidazo[1,2-b]pyridazin-2-yl)-5,5-difluoro-4,4-dimethylhexyl)-4-methyl-1,2,5-oxadiazole-3-carboxamide]
IC50 ([1]; Homo sapiens, Keratinocyte): < 50 nM | IC50 [2]: < 50 nM

[2H]C1([2H])NC(=O)N([C@H](COC2CC2)c2cnn3cc([C@@H](NC(=O)c4nonc4C(F)F)C4CCC(F)(F)CC4)nc3c2)C([2H])([2H])C1(F)F [Example 82, N—((S)-(7-((S)-2-Cyclopropoxy-1-(5,5-difluoro-2-oxotetrahydropyrimidin-1(2H)-yl-4,4,6,6-d4)ethyl)imidazo[1,2-b]pyridazin-2-yl)(4,4-difluorocyclohexyl)methyl)-4-(difluoromethyl)-1,2,5-oxadiazole-3-carboxamide]
IC50 ([1]; Homo sapiens, Keratinocyte): < 50 nM | IC50 [2]: < 50 nM

COC[C@H](c1cnn2cc(C(NC(=O)c3nonc3C)C3C[C@H]4CC[C@H]4C3)nc2c1)N1CC(F)(F)CNC1=O (single isomer, unassigned) [Example 132, N-((1S*)-((1R,5S)-Bicyclo[3.2.0]heptan-3-yl)(7-((S)-1-(5,5-difluoro-2-oxotetrahydropyrimidin-1(2H)-yl)-2-methoxyethyl)imidazo[1,2-b]pyridazin-2-yl)methyl)-4-methyl-1,2,5-oxadiazole-3-carboxamide]
IC50 ([1]; Homo sapiens, Keratinocyte): < 50 nM | IC50 [2]: < 50 nM

[2H]C1([2H])NC(=O)N([C@H](COC)c2cnn3cc([C@@H](NC(=O)c4nonc4C4CC4)C4CCC(F)(F)CC4)nc3c2)C([2H])([2H])C1(F)F [Example 72, 4-Cyclopropyl-N—((S)-(7-((S)-1-(5,5-difluoro-2-oxotetrahydropyrimidin-1(2H)-yl-4,4,6,6-d4)-2-methoxyethyl)imidazo[1,2-b]pyridazin-2-yl)(4,4-difluorocyclohexyl)methyl)-1,2,5-oxadiazole-3-carboxamide]
IC50 ([1]; Homo sapiens, Keratinocyte): < 50 nM | IC50 [2]: < 50 nM

[2H]C1([2H])NC(=O)N([C@H](COC)c2cnn3cc([C@H](CCC(C)(C)C(F)(F)F)NC(=O)c4nonc4C4CC4)nc3c2)C([2H])([2H])C1(F)F [Example 80, 4-Cyclopropyl-N—((S)-1-(7-((S)-1-(5,5-difluoro-2-oxotetrahydropyrimidin-1(2H)-yl-4,4,6,6-d4)-2-methoxyethyl)imidazo[1,2-b]pyridazin-2-yl)-5,5,5-trifluoro-4,4-dimethylpentyl)-1,2,5-oxadiazole-3-carboxamide]
IC50 ([1]; Homo sapiens, Keratinocyte): < 50 nM | IC50 [2]: < 50 nM

[2H]C1([2H])NC(=O)N([C@H](COC)c2cnn3cc([C@H](CCC(C)(C)C(F)(F)F)NC(=O)c4nonc4OC)nc3c2)C([2H])([2H])C1(F)F [Example 73, N—((S)-1-(7-((S)-1-(5,5-Difluoro-2-oxotetrahydropyrimidin-1(2H)-yl-4,4,6,6-d4)-2-methoxyethyl)imidazo[1,2-b]pyridazin-2-yl)-5,5,5-trifluoro-4,4-dimethylpentyl)-4-methoxy-1,2,5-oxadiazole-3-carboxamide]
IC50 ([1]; Homo sapiens, Keratinocyte): < 50 nM | IC50 [2]: < 50 nM

COC[C@H](c1cnn2cc([C@@H](NC(=O)c3nonc3C)C3CCC(F)(F)CC3)nc2c1)N1CC(F)(F)C(F)(F)CNC1=O [Example 123, N—((S)-(4,4-Difluorocyclohexyl)(7-((S)-2-methoxy-1-(5,5,6,6-tetrafluoro-2-oxo-1,3-diazepan-1-yl)ethyl)imidazo[1,2-b]pyridazin-2-yl)methyl)-4-methyl-1,2,5-oxadiazole-3-carboxamide]
IC50 ([1]; Homo sapiens, Keratinocyte): 50 to 100 nM | IC50 [2]: < 50 nM
